What was measured:
Assay type in all cases: in vivo, rat
[1] = tested on: rats with ligature-induced experimental periodontitis (EPD); assay: Alveolar bone volume in EPD rats, 14 natural substance extracts; details: extract 200 mg/kg (IND 5 mg/kg) oral once a day for 10 days, FIG. 2
Protocol: (§1) The gingivitis- and periodontitis-improving effect was evaluated using rats with ligature-induced experimental periodontitis (EPD). 24 hours after the ligature of the cervical portion, each extract dissolved in sterilized distilled water was orally administered at a dosage of 5 mL/kg (200 mg/kg) once a day for 10 days and the change in the amount of interleukin (IL)-1β in the gingival tissue and the alveolar bone volume was observed along with histopathological changes. A group to which 5 mg/kg indomethacin (IND), which is a nonsteroidal anti-inflammatory drug (NSAID), was orally administered was used as a control group.
Each of the concentrated pomegranate powder and the 13 extracts containing moringa leaf (balloon flower root, gardeniae fructus, scutellariae radix, moringa, lotus leaf, Chinese mulberry leaf, ginger, peony root, achyranthis radix, eucommia bark, red clover, dandelion and dandelion root) was dissolved in sterilized distilled water to a concentration of 40 mg/mL and orally administered at a dosage of 5 mL/kg (200 mg/kg) from 24 hours after the ligature of the cervical portion once a day for 10 days. […]
Alveolar bone loss was measured according to the method of Crawford et al. [1987]. […] The area between the end of the gingiva and the end of the incisor between the two teeth subjected to EPD was expressed as mm/rat.

[2] = tested on: interleukin (IL)-1β in the gingival tissue; assay: IL-1β content in gingival tissue of EPD rats, 14 natural substance extracts; details: extract 200 mg/kg (IND 5 mg/kg) oral once a day for 10 days, FIG. 1
Protocol: as §1, with “group. […]” for “group.”
After EPD for 11 days, the gingival tissue was homogenized and subjected to measurement with the IL-1β rat ELISA kit (Abcam, Cambridge, UK). […] After adding 50 μL of a stop solution to each well, absorbance was measured with a microplate reader (Tecan, Mannedofr, Switzerland) at a wavelength of 450 nm.

[3] = tested on: osteoclasts in alveolar bone; assay: Number of osteoclasts in alveolar bone of EPD rats (TRAP staining); details: dosage of 200 mg/kg oral once a day for 10 days, FIG. 7
Protocol: The gingivitis- and periodontitis-improving effect was evaluated using rats with ligature-induced experimental periodontitis (EPD). 9 complex compositions of the moringa leaf extract (MF) and the eucommia bark extract (EC) (MF:EC=1:1, 1:2, 1:4, 1:6, 1:8, 2:1, 4:1, 6:1 and 8:1; mg:mg) dissolved in sterilized distilled water were orally administered at a dosage of 5 mL/kg (200 mg/kg) once a day for 10 days and body weight, alveolar bone, number of viable aerobic bacteria in the oral tissue, interleukin (IL)-1β and tumor necrosis factor (TNF)-α contents in the gingiva, lipid peroxidation (malondialdehyde (MDA) content) and change in the activity of inducible nitric oxide synthase (iNOS) and myeloperoxidase (MPO) were observed together with histopathological changes. […] A group to which 5 mg/kg indomethacin (IND), which is a nonsteroidal anti-inflammatory drug (NSAID), was orally administered was used as a control group. […]
The number of osteoclasts was determined by staining with TRAP and counting the number of TRAP-positive multinucleated cells. […] The number of TRAP-positive multinucleated osteoclasts (having 3 or more nuclei) formed on the surface of the alveolar bone was counted using an optical microscope.

Q: COc1ccc2c(c1)c(CC(=O)O)c(C)n2C(=O)c1ccc(Cl)cc1 [IND, indomethacin] was tested. Which “change in alveolar bone volume as compared to the EPD control group” value [1] did it give?
A: significantly increase (p<0.01 or p<0.05)

Q: And the “change in IL-1β content in the gingival tissue as compared to the EPD control group” value [2]?
A: significantly decrease (p<0.01)

Q: And the “change in the number of osteoclasts as compared to the EPD control group” value [3]?
A: −50.19%

From patent US20180271925A1, “Method For Improving Gingivitis And Periodontitis By Antibacterial, Antioxidant And Anti-Inflammatory Effects And Inhibition Of Alveolar Bone Loss Of Complex Extracts Of Moringa Leaf And Eucommia Bark” (HLSCIENCE CO., LTD., priority 2017, published 2018)
